Structures can show the parent of a compound that is named as a salt.

Drawing on patent publication US6413975B1, “Purine derivatives having phosphodiesterase iv inhibition activity” (Euro-Celtique, S.A., priority 1999, dated 2002), this text covers IC50 for 39 compounds.

The first assay relates to Type IV PDE. Nature of the assay: PDE IV inhibition: hydrolysis of [3H]-cyclic AMP by isolated Type IV PDE. Conditions: adenines, Table 4; cyclic AMP 0.2 μM; read-out: calc PDE IV IC50. The format is biochemical, bovine. As to the method:
The Type IV PDE is isolated from bovine tracheal smooth muscle using a procedure similar to that previously described by Silver, P. J., Hamel, L. T., Perrone, M. H. Bentley, R. G. Bushover, C. R., Evans, D. B.: Eur. J. Pharmacol. 150:85,1988.(1). Briefly, smooth muscle from bovine trachea is minced and homogenized using a polytron in 10 volumes of an extraction buffer containinhg 10 mM Tris-acetate (pH 7.5), 2 mM magnesium chloride, 1 mM dithiothreitol and 2,000 units/ml of aprotinin. This and all subsequent procedures are performed at 0-4° C. The homogenate is sonicated and then centrifiged at 48,000×g for 30 minutes. The resulting supernatant is applied to a DEAE Trisacryl M column previously equilibrated with sodium acetate and dithiothreitol. After applications of the sample, the column is washed with sodium acetate/dithiothreitol, after which the different forms of PDE are eluted from the column using a linear Tris-HCl/NaCl gradient. Fractions containing Type IV PDE are collected, dialyzed and concentrated to 14% of the original volume. The concentrated fractions are diluted to 50% with ethylene glycol and stored at -20° C.
Enzyme activity is assessed by measuring the hydrolysis of [^3H]-cyclic AMP, as described by Thompson, W. J., Teraski, W. L., Epstein, P. N., Strada, S. J.: Adv. Cyclic Nucleotide Res. 10:69, 1979. The cyclic AMP concentration used in this assay is 0.2 μM, which approximates the Km value. Protein concentration is adjusted to ensure that no more than 15% of the available substrate is hydrolyzed during the incubation period.
All test compounds are dissolved in dimethyl sulfoxide (final concentration of 2.5%). This concentration of dimethyl sulfoxide inhibits enzyme activity by approximately 10%.
With `CCCCn1cnc(NCC)c2ncnc1-2` [3-butyl-6-ethylamino-3H-purine hydrochloride], the IC50 was 66.4 µM. Regarding `CCCCn1cnc(NCC)c2nc(C3CC3)nc1-2` [3-butyl-8-cyclopropyl-6-ethylamino-3H-purine hydrochloride], the IC50 was 5.99 µM. On the same count and under the same terms, the figure for `CCNc1ncn(CC2CCCCC2)c2ncnc1-2` [3-cyclohexylmethyl-6-ethylamino-3H-purine hydrochloride] is 33 µM; for `CCNc1ncn(CC2CCCCC2)c2nc(C3CC3)nc1-2` [3-cyclohexylmethyl-8-cyclopropyl-6-ethylamino-3H-purine hydrochloride] it is 3.78 µM; for `CCNc1ncn(CC2CC2)c2nc(C(C)C)nc1-2` [3-cyclopropylmethyl-8-isopropyl-6-ethylamino-3H-purine hydrochloride] it is 12.7 µM.

The assay is the same for the next values; noted with them: adenines, Table 7; read-out: calc PDE IV IC50.
On to `CCNc1ncn(Cc2ccc(OC)c(OC3CCC(O)C3)c2)c2nc(C(C)C)nc1-2` (stereo not shown) [3-(3-((3-hydroxy)cyclopentyloxy)-4-methoxybenzyl)-6-ethylami] [3-(3-((3-hydroxy)cyclopentyloxy)-4-methoxybenzyl)-6-ethylamino-8-isopropyl-3H-purine], for which the IC50 was 1.36 µM. Same read-out and setting: with `CCNc1ncn(Cc2ccc(OC)c(OCc3ccccc3)c2)c2nc(C(C)C)nc1-2` [3-(3-benzyloxy-4-methoxy-benzyl)-6-ethylamino-8-isopropyl-3H-purine] the figure was 1.3 µM. The same measure, in the same setting: the figure for `CCNc1ncn(Cc2cccc(Cl)c2)c2nc(C(C)C)nc1-2` [3-(3-chlorobenzyl)-6-ethylamino-8-isopropyl-3H-purine] is 2.15 µM; for `COc1ccc(CNc2ncn(Cc3ccc(OC)c(OC4CCCC4)c3)c3nc(C(C)C)nc2-3)cc1OC1CCCC1` [3-(3-cyclopentyloxy-4-methoxybenzyl)-6-(3-cyclopentyloxy-4-methoxybenzylamino)-8-isopropyl-3H-purine] it is 1.14 µM. Same read-out and setting: with `COc1ccc(Cn2cnc(NCC(F)(F)F)c3nc(C(C)C)nc2-3)cc1OC1CCCC1` [3-(3-cyclopentyloxy-4-methoxybenzyl)-6-((2,2,2-trifluoroethyl)amino)-8-isopropyl-3H-purine] the figure was 12.8 µM; with `CCN(C(=O)c1ccccc1)c1ncn(Cc2ccc(OC)c(OC3CCCC3)c2)c2nc(C(C)C)nc1-2` [3-(3-cyclopentyloxy-4-methoxybenzyl)-6-(N-benzoyl-N-ethylamino)-8-isopropyl-3H-purine], 1.43 µM; with `COc1ccc(Cn2cnc(N)c3nc(C(C)C)nc2-3)cc1OC1CCCC1` [3-(3-cyclopentyloxy-4-methoxybenzyl)-6-amino-8-isopropyl-3H-purine], 0.82 µM. On to `COc1ccc(Cn2cnc(N(C)C)c3nc(C(C)C)nc2-3)cc1OC1CCCC1` [3-(3-cyclopentyloxy-4-methoxybenzyl)-6-dimethylamino-8-isopropyl-3H-purine], for which the IC50 is 19.3 µM.

Turning to `CCNc1nc(NCC)n(Cc2ccc(Cl)cc2)c2nc(C(C)C)nc1-2` [3-(4-chlorobenzyl)-2,6-di(ethylamino)-8-isopropyl-3H-purine], the IC50 was 11.2 µM.

As to `CC(C)c1nc2c(NC3(O)CCCC3)ncn(Cc3ccc(Cl)cc3)c-2n1` [3-(4-chlorobenzyl)-6-((1-hydroxy)cyclopentylamino)-8-isopropyl-3H-purine], the IC50 was 4.48 µM. On the same count and under the same terms, the figure for `CC(C)c1nc2c(NC3CCCC3)ncn(Cc3ccc(Cl)cc3)c-2n1` [3-(4-chlorobenzyl)-6-cyclopentylamino-8-isopropyl-3H-purine] is 4.7 µM. On the same count and under the same terms, the figure for `CC(C)c1nc2c(NC3CC3)ncn(Cc3ccc(Cl)cc3)c-2n1` [3-(4-chlorobenzyl)-6-cyclopropylamino-8-isopropyl-3H-purine] is 1.69 µM; for `CCNc1ncn(-c2ccc(Cl)cc2)c2nc(C(C)C)nc1-2` [3-(4-chlorophenyl)-6-ethylamino-8-isopropyl-3H-purine] it is 6.5 µM; for `COc1ccc(Cn2cncc3nc(C(C)(C)O)nc2-3)cc1OC1CCC(O)C1` (stereo not shown) [3-[3-(3-Hydroxy-cyclopentyloxy)-4-methoxy-benzyl]-8-(1-hydroxy-1-methyl-ethyl)-3H-purine] it is 2.25 µM. `CCNc1ncn(Cc2ccc(OC)c(OC3CCC(O)C3)c2)c2nc(C(C)C)nc1-2` (stereo not shown) [3-[3-(3-hydroxy)cyclopentyloxy)]-4-methoxy)benzyl)-6-ethylam] [3-[3-(3-hydroxy)cyclopentyloxy)]-4-methoxy)benzyl)-6-ethylamino-8-isopropyl-3H-purine]: the IC50 was 2.28 µM. The same measure, in the same setting: with `CCNc1ncn(Cc2ccc(OC)c(OC3CCCCC3)c2)c2nc(C(C)C)nc1-2` [3-[3-Cyclohexanyl-4-oxy-4-methoxy-benzyl]-6-ethylamino-8-isopropyl-3H-purine] the figure was 8.28 µM; with `C=C(C)c1nc2c(NCC)ncn(Cc3ccc(OC)c(OC4CCCC4)c3)c-2n1` [3-[(3-cyclopentyloxy-4-methoxy)benzyl]-6-ethylamino-8-(1-methyl-ethenyl)-3H-purine], 0.27 µM. Turning to `CCNc1ncn(Cc2ccc(OC)c(OC3CCCC3)c2)c2nc(C(C)(C)O)nc1-2` [3-[(3-cyclopentyloxy-4-methoxy)benzyl]-6-ethylamino-8-[(1-hy] [3-[(3-cyclopentyloxy-4-methoxy)benzyl]-6-ethylamino-8-[(1-hydroxy-1-methyl)ethyl]-3H-purine], the IC50 is 0.85 µM.

As to `CCNc1ncn(Cc2ccc(OC)c(OC3CCCC3)c2)c2nc(C(C)(C)O)nc1-2` [3-[(3-cyclopentyloxy-4-methoxy)benzyl]-8-[(1-methyl-1-hydrox] [3-[(3-cyclopentyloxy-4-methoxy)benzyl]-8-[(1-methyl-1-hydroxy)ethyl]-6-ethylamino-3H-purine], the IC50 is 3.1 µM.

Staying with this assay, now noted: dithioxanthines, Table 5; read-out: IC50 PDE IV.
For `CCCn1c(=S)[nH]c(=S)c2[nH]c(C(C)C)nc21` [3,7-dihydro-8-isopropyl-3-propyl-2,6-dithio-1H-purine-2,6-dione], the IC50 is 3.5 µM. Consider `CC(C)c1nc2c([nH]1)c(=S)[nH]c(=S)n2Cc1ccccc1Cl` [3-(2-chlorobenzyl)-3,7-dihydro-8-isopropyl-2,6-dithio-1H-purine-2,6-dione], for which the IC50 was determined as 7.74 µM. For the compound `COc1ccc(Cn2c(=S)[nH]c(=S)c3[nH]cnc32)cc1OC1CCCC1` [3-(3-cyclopentyloxy-4-methoxybenzyl)-3,7-dihydro-2,6-dithio-1H-purine-2,6-dione], the IC50 came to 16.2 µM. In the case of `CC(C)c1nc2c([nH]1)c(=S)[nH]c(=S)n2Cc1ccc(Cl)cc1` [3-(4-chlorobenzyl)-8-isopropyl)-3,7 dihydro-2,6-dithio-3,7-purine-2,6-dione], the IC50 is 2.4 µM.

For the compound `S=c1[nH]c(=S)n(Cc2ccccc2)c2nc[nH]c12` [3-benzyl-3,7-dihydro-2,6-dithio-1H-purine-2,6-dione], the IC50 stood at 38.5 µM. The same measure, in the same setting: the figure for `CCCCn1c(=S)[nH]c(=S)c2[nH]c(C(C)C)nc21` [3-butyl-3,7-dihydro-8-(1-methylethyl)-2,6-dithio-1H-purine-2,6-dione] is 5.93 µM. On to `CCCCn1c(=S)[nH]c(=S)c2[nH]c(C3CC3)nc21` [3-butyl-8-cyclopropyl-3,7-dihydro-2,6-dithio-1H-purine-2,6-dione], for which the IC50 stood at 9.43 µM. Still for that read-out and setting: the figure for `S=c1[nH]c(=S)n(CC2CCCCC2)c2nc(C3CC3)[nH]c12` [3-cyclohexylmethyl-8-cyclopropyl-3,7-dihydro-2,6-dithio-1H-purine-2,6-dione] is 3.03 µM.

The same assay, now with this note: read-out: PDE IV I50.
Take `CCNc1ncn(Cc2ccc(OC)c(OC3CCCC3)c2)c2ncnc1-2` [3-(3-Cyclopentyloxy-4-methoxybenzyl)-6-ethylamino-3H-purine Hydrochloride]: the IC50 is 2.15 µM. As for `CC(C)c1nc2c([nH]1)c(=S)[nH]c(=S)n2Cc1ccc(Cl)cc1` [3-(4-chlorobenzyl)-8-isopropyl)-3,7 dihydro-2,6-dithio-3,7-purine-2,6-dione], the IC50 came out at 2.27 µM.

With `CC(C)c1nc2c([nH]1)c(=S)[nH]c(=S)n2Cc1ccccc1` [3-benzyl-3,7-dihydro-8-(1-methylethyl)-2,6-dithio-1H-purine-2,6-dione], the IC50 was determined as 3.4 µM.

Still in this assay, the particulars now being: thioisoguanines, Table 2; cyclic AMP 0.2 μM; read-out: Calc IC50 PDE IV.
With `CC(C)c1nc2c([nH]1)c(NC1CCCC1)nc(=S)n2Cc1ccc(Cl)cc1` [3-(4-chlorobenzyl)-6-cyclopentylamino-3,7-dihydro-8-isopropyl-2-thio-2H-purin-2-one], the IC50 is 114 µM. `CCCNc1nc(=S)n(CC2CC2)c2nc(C(C)C)[nH]c12` [3-(cyclopropylmethyl)-3,7-dihydro-8-(1-methyl-ethyl)-6-propylamino-2-thio-2H-purin-2-one hydrochloride]: the IC50 is 23.9 µM. On the same count and under the same terms, the figure for `CCNc1nc(=S)n(Cc2ccccc2)c2nc(C(C)C)[nH]c12` [3-benzyl-6-ethylamino-3,7-dihydro-8-(1-methyl-ethyl)-2-thio-2H-purin-2-one] is 28.4 µM; for `CCCCn1c(=S)nc(NCC)c2[nH]c(C3CC3)nc21` [3-butyl-8-cyclopropyl-3,7-dihydro-6-ethylamino-2-thio-2H-purin-2-one] it is 34.9 µM. On the same count and under the same terms, with `CCNc1nc(=S)n(CC2CCCCC2)c2nc(C3CC3)[nH]c12` [3-cyclohexylmethyl-8-cyclopropyl-3,7-dihydro-6-ethylamino-2-thio-2H-purin-2-one] the figure was 15.2 µM.
